In ChEMBL document CHEMBL1153846, “QSAR studies for diarylpyrimidines against HIV-1 reverse transcriptase wild-type and mutant strains” (Eur J Med Chem, 2009):

What was measured:
[1] = Hydrophobic index, Log P of the compound; type: physicochemical; conditions: octanol/water
[2] = test system: Human immunodeficiency virus type 1 reverse transcriptase (Human immunodeficiency virus 1), Q72547 [[…]]; test: Inhibition of HIV1 reverse transcriptase Y188L mutant
[3] = molecular target: Human immunodeficiency virus type 1 reverse transcriptase (Human immunodeficiency virus 1) (UniProt Q72547); test: Inhibition of HIV1 wild type reverse transcriptase
[4] = test system: Human immunodeficiency virus type 1 reverse transcriptase (Human immunodeficiency virus 1), Q72547 [Y181C]; test: Inhibition of HIV1 reverse transcriptase Y181C mutant
[5] = test system: Human immunodeficiency virus type 1 reverse transcriptase (Human immunodeficiency virus 1), Q72547 [L100I]; test: Inhibition of HIV1 reverse transcriptase L100I mutant

Structure (SMILES)	logP ([1]; read-out: logP)	log(1/C) [2]	log(1/C) [3]	log(1/C) [4]	log(1/C) [5]	logP [1]
CC(=O)Nc1cnc(Nc2ccc(C#N)cc2)nc1Oc1c(C)cc(C#N)cc1C	-0.38					
N#Cc1ccc(Nc2nccc(Nc3c(Cl)cc(Cl)cc3Cl)n2)cc1	0.51	7	9.15	8	7.85	
Cc1cc(C)c(Nc2ccnc(Nc3ccc(C#N)cc3)n2)c(C)c1 [DAPIVIRINE]	1.64	7.32	9	8.12	7.74	
Cc1cc(C#N)cc(C)c1Nc1nc(Nc2ccc(C#N)cc2)nc(CO)c1Br	0.81	8.22	8.4	8.22	8.7	
Cc1cc(C#N)cc(C)c1Nc1nc(Nc2ccc(C#N)cc2)ncc1Cl	1.11	8.33	8.92	7.85	8.28	
Cc1cc(C#N)cc(C)c1Nc1nc(Nc2ccc(C#N)cc2)nc(NO)c1Br	2.18		8.4	7.92	8.92	
Cc1cc(C#N)cc(C)c1Oc1nc(Nc2ccc(C#N)cc2)ncc1N	-0.21	8.24	9	8.03	7.8	
Cc1cnc(Nc2ccc(C#N)cc2)nc1Nc1c(C)cc(C#N)cc1C	1.49	7.8	9.1	7.92	7.8	
Cc1cccc(C)c1Nc1ccnc(Nc2ccc(C#N)cc2)n1	1.49	6.59	9.15	7.21	6.67	
C#Cc1cnc(Nc2ccc(C#N)cc2)nc1Nc1c(C)cc(C)cc1C	1.63					
Cc1cc(C#N)cc(C)c1Nc1nc(Nc2ccc(C#N)cc2)ncc1C#N	1.06	8.07	9.3	7.12	7.04	
Cc1cc(C)c(Nc2nc(Nc3ccc(C#N)cc3)ncc2C)c(C)c1	1.92	7.74	8.77	7.92	7.92	
Cc1cc(Cl)cc(Cl)c1Nc1ccnc(Nc2ccc(C#N)cc2)n1	0.89	7.07	9	7.74	7.22	
Cc1cc(C)c(Nc2nc(Nc3ccc(C#N)cc3)ncc2Cl)c(C)c1	1.72	7.47	8.57	7.49	7.77	
Cc1cc(C)c(Oc2nc(Nc3ccc(C#N)cc3)ncc2Br)c(C)c1	1.82	7.57	8.26	7.44	7.96	
Cc1cc(C#N)cc(C)c1Sc1ccnc(Nc2ccc(C#N)cc2)n1	2.06	7.36	8.24	7.17	6.76	
Cc1cc(C#N)cc(C)c1Oc1nc(Nc2ccc(C#N)cc2)nc(N)c1Br [ETRAVIRINE]	1.54	8.34	8.85	8.15	8.48	

Structure (SMILES)	logP ([1]; read-out: logP)	log(1/C) [2]	log(1/C) [3]	log(1/C) [4]	log(1/C) [5]	logP [1]
Cc1cc(C#N)cc(C)c1Nc1nc(Nc2ccc(C#N)cc2)ncc1Br	1.39	8.48	9.4	8.02	8.15	
Cc1cc(C#N)cc(C)c1Oc1nc(Nc2ccc(C#N)cc2)ncc1Cl	1.29	8.32	8.85	7.47	8.12	
Cc1cc(C)c(Oc2ccnc(Nc3ccc(C#N)cc3)n2)c(C)c1	1.82	7.26	8.54	7.42	7.66	
N#Cc1ccc(Nc2nccc(Nc3c(Br)cc(F)cc3Br)n2)cc1	0.68	7.19	9.22	7.82	7.82	
Cc1cc(Br)cc(C)c1Nc1ccnc(Nc2ccc(C#N)cc2)n1	1.54	7.16	8.64	7.77	7.12	
Cc1cc(Cl)cc(C)c1Nc1ccnc(Nc2ccc(C#N)cc2)n1	1.27	6.94	8.68	7.72	6.49	
Cc1cc(C)c(Nc2nc(Nc3ccc(C#N)cc3)ncc2C#N)c(C)c1	1.49	7.11	9	7.4	7.2	
Cc1cc(C#N)cc(C)c1Oc1nc(Nc2ccc(C#N)cc2)ncc1[N+](=O)[O-]		6.11	7.74	6.52	6.92	0.7
C#Cc1cc(C)c(Oc2ccnc(Nc3ccc(C#N)cc3)n2)c(C)c1	1.53	7.3	8.26	6.77	6.73	
Cc1cc(Br)cc(C)c1Oc1ccnc(Nc2ccc(C#N)cc2)n1	1.72	7.1	8.54	7.23	6.95	
Cc1cc(C)c(Sc2ccnc(Nc3ccc(C#N)cc3)n2)c(C)c1	2.16	7.7	8.44	7.6	7.27	
Cc1cc(C#N)cc(C)c1Oc1ccnc(Nc2ccc(C#N)cc2)n1	1.39	7.72	8.96	7.43	7.14	
C=Cc1cnc(Nc2ccc(C#N)cc2)nc1Nc1c(C)cc(C)cc1C	2.1	7.54	8.6	7.44	7.46	
Cc1cc(C)c(Nc2nc(Nc3ccc(C#N)cc3)ncc2-c2ccccc2)c(C)c1	3.14		7.62			
Cc1cc(C#N)cc(C)c1Nc1ccnc(Nc2ccc(C#N)cc2)n1	1.21	8.11	9.4	8.15	7.47	
Cc1cc(Br)c(Nc2ccnc(Nc3ccc(C#N)cc3)n2)c(Br)c1	1.44		9.15	8.47	8.52	
